# From patent US20210214358A1, “CDK4/6 INHIBITOR AND PHARMACEUTICALLY ACCEPTABLE SALT AND POLYMORPH THEREOF AND USE THEREOF” (SHANGHAI HAIYAN PHARMACEUTICAL TECHNOLOGY CO., LTD., priority 2018, published 2021)
# Legend:
# [1] = Pharmacokinetics and brain distribution test; format: in vivo, SD rats; conditions: rats, oral 10 mg/kg
# Experimental: Test Animals: healthy adult male SD rats (weight 210-230 g per rat, 12 rats, fasted overnight, fed 4 hours after dosing), provided by SLAC company; preparation of oral solution: 40.14 mg of compound P-53 was weighed and added into a clean tube, and 36.479 mL of 0.5% HPC-H (TCI, E6ZQA) in acetate buffer (PH4.5) was added into the tube. The mixture was then vortexed for 1-2 min. Then the solution was sonicated for 20-25 min and stirred for 20-25 min.
# SD rats were administered via intragastric administration (10 mg/kg (10 mL/kg)); samples were collected at 0.5, 1, 2 and 4 hr after dosing (total 4 timepoints), wherein only plasma samples were collected continuously, and brain tissue and cerebrospinal fluid were collected at each time point.
# Blood collection: The animal was restrained manually and at each time point collected approximately 150 μL blood via tail vein into a K2EDTA-containing tube. Within 15 minutes, the blood sample was put on wet ice and centrifuged to obtain plasma sample (2000 g, 5 min under 4° C.). […]
# Analytical method: the plasma and brain of SD rats were used as matrix, and Glipizide was used as an internal standard. […] The drug concentration was determined by LC-MS/MS method, the pharmacokinetic parameters in the plasma, brain tissue, and cerebrospinal fluid of rats are shown in Table 8: […]
# [2] = biological target: T1, CDK4 (Homo sapiens, UniProt P11802); assay: Kinase test in vitro (LANCE Ultra, Ulight-4EBP1); format: biochemical
# T1 construct: purchased Invitrogen or Carna
# Description: (§1) Recombinant CDK1, CCNB1 and CDK9, and CCNT were purchased from BPS; CDK2, CCNA1, CDK4, CCND1 and CDK6, and CCND1 were purchased from Invitrogen; CDK4, CycD3 and CDK6, and CycD3 were purchased from Carna. Adenosine triphosphate (ATP) was purchased from Life tech. Substrate Ulight-4EBP1 and the corresponding detection antibody were purchased from Perkinelmer. LANCE Ultra system from Perkinelmer is used as the detection system.
# (§2) In the kinase test, a compound to be tested was 1:3 diluted for 8 gradient points and added into a reaction plate, and then an appropriate amount of recombinase was added. A buffer [50 mM HEPES pH7.5, 10 mM MgCl2, 3 mM MnCl2, 1 mM EGTA, 0.01% Tween-20, 1 mM TCEP] containing ATP, Ulight-4EBP1 premix at a predetermined concentration was subsequently added, and the kinase reaction began at room temperature. A test solution pre-mixed with 10 mM EDTA and detection antibody was added after a suitable reaction time, and then the fluorescence value was read on Tecan infinite pro after reacting for 1 hour at room temperature. The IC50 was calculated using a four-factor model fitting in a XLfit software.
# [3] = biological target: T2, CDK1 (Homo sapiens, UniProt P06493); assay: Kinase test in vitro (LANCE Ultra, Ulight-4EBP1); format: biochemical
# T2 construct: purchased BPS
# Description: as §1, §2
# [4] = biological target: T3, CDK6 (Homo sapiens, UniProt Q00534); assay: Kinase test in vitro (LANCE Ultra, Ulight-4EBP1); format: biochemical
# T3 construct: purchased Invitrogen or Carna
# Description: as §1, §2
# [5] = biological target: T4, CDK2 (Homo sapiens, UniProt P24941); assay: Kinase test in vitro (LANCE Ultra, Ulight-4EBP1); format: biochemical
# T4 construct: purchased Invitrogen
# Description: as §1, §2
# T3 sequence (Q00534 whole entry): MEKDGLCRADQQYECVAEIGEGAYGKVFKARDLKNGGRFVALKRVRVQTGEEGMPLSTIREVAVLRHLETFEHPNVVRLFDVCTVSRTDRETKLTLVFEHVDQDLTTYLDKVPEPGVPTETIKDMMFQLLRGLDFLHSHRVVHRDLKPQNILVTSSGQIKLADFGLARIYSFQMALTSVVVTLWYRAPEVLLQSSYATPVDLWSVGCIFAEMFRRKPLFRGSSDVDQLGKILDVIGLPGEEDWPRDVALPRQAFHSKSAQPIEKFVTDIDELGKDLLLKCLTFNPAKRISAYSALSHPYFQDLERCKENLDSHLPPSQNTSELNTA
# T3 sequence (P24385 whole entry partner): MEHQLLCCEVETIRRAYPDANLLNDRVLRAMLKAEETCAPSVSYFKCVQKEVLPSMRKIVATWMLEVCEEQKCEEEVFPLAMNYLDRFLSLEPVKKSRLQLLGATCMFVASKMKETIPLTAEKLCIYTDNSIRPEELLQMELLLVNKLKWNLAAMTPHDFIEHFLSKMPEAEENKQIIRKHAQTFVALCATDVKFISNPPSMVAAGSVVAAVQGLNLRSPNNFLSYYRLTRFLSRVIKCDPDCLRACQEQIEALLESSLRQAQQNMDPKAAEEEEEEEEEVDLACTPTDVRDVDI
# T2 sequence (P06493 whole entry): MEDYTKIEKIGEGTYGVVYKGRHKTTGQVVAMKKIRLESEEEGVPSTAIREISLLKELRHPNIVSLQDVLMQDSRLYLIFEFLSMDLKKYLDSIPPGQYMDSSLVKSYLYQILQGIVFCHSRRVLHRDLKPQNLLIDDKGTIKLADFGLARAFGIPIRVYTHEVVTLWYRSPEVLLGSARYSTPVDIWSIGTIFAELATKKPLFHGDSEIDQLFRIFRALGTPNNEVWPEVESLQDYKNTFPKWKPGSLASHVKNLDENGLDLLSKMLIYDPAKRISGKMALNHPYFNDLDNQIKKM
# T2 sequence (P14635 whole entry partner): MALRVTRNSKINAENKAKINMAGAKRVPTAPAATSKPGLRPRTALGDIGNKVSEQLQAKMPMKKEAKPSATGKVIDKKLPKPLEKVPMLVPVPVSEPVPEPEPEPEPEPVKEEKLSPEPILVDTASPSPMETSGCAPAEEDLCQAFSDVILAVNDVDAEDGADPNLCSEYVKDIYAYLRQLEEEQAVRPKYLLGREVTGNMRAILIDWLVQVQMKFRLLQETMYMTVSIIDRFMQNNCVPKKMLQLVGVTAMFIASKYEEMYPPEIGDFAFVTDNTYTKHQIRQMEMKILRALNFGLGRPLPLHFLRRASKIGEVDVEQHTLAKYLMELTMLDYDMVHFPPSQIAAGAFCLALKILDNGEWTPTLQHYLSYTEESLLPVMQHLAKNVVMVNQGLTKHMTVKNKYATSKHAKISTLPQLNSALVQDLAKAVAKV
# T1 sequence (P11802 whole entry): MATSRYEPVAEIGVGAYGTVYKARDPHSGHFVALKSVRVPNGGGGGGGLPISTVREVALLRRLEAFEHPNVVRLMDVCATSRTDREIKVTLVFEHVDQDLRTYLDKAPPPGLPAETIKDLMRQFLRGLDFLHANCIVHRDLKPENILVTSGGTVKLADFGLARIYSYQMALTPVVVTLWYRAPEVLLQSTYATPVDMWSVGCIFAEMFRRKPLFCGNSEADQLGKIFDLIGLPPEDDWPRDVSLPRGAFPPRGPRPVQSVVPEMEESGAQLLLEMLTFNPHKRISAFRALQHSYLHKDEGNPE
# T1 sequence (P24385 whole entry partner): as the sequence (P24385 whole entry partner) above
structure (smiles),measurement,setting,value
"CCN1CCN(Cc2ccc(Nc3ncc4c(n3)-c3c(nc(C5CC5)n3C(C)C)C4)nc2)CC1 [Free base of compound of formula X, 2-cyclopropyl-N-(5-((4-ethylpiperazin-1-yl)methyl)pyridin-2-yl)-3-isopropyl-3,8-dihydroimidazo[4′,5′,4,5]cyclopenta[1,2-d]pyrimidin-5-amine]",brain permeability (in words),[1],can cross the blood-brain barrier
same,IC50,[2],0.01 µM
same,inhibitory activity against CDK4 (in words),[2],strong inhibitory activity
same,IC50,[3],6.09 µM
same,inhibitory activity against CDK1 (in words),[3],weak inhibitory activity
same,IC50,[4],0.057 µM
same,inhibitory activity against CDK6 (in words),[4],strong inhibitory activity
same,IC50,[5],8.75 µM
same,inhibitory activity against CDK2 (in words),[5],weak inhibitory activity
